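1) Cells in 96-well plates. 2) Compound, 48 h, 5 concentrations. 3) Linear interpolation between surrounding doses. 4) Unreached endpoint = highest concentration. Definition used: TGI = concentration required for complete inhibition of growth.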
How the values were obtained:
Assay in all cases: DTP human tumour cell line panel, 48 h
[1] = system: IGROV1 ovarian
[2] = system: MDA-MB-435
[3] = system: MOLT-4 leukemia
[4] = system: SK-MEL-28 melanoma
[5] = system: SK-MEL-5 melanoma
[6] = system: SK-OV-3 ovarian
[7] = system: SN12C renal
[8] = system: SW-620 colon
[9] = system: T-47D breast
[10] = system: U251 CNS

`Cc1cc(NS(=O)(=O)c2ccc(NC(NC(=O)C(C(F)(F)F)C(F)(F)F)(C(F)(F)F)C(F)(F)F)cc2)no1` gave a TGI [1] of over 100 µM, a TGI [2] of over 100 µM and a TGI [3] of over 100 µM. For the same compound, the TGI [4] was over 100 µM, the TGI [5] was over 100 µM and the TGI [6] was over 100 µM. It also gave a TGI [7] of over 100 µM, a TGI [8] of over 100 µM and a TGI [9] of over 100 µM. It also gave a TGI [10] of over 100 µM.
With `COc1cc([N+](=O)[O-])c(OC)c2c(Nc3ccc(S(=O)(=O)O)c4cc(S(=O)(=O)O)cc(S(=O)(=O)O)c34)cc(C)nc12` the TGI [1] was over 100 µM, the TGI [2] was over 100 µM and the TGI [3] was over 100 µM. For the same compound, the TGI [4] was over 100 µM, the TGI [5] was over 100 µM and the TGI [6] was over 100 µM. It also gave a TGI [7] of over 100 µM, a TGI [8] of over 100 µM and a TGI [9] of over 100 µM. The TGI [10] was over 100 µM.
In the case of `Cc1cc(O)c(-c2cc(O)c(C)cc2O)cc1O`, the TGI [1] is reported as 25.9 µM, the TGI [2] is reported as 9.32 µM and the TGI [3] is reported as 5.21 µM. For the same compound, the TGI [4] was 22.7 µM, the TGI [5] was 28.4 µM and the TGI [6] was 30.5 µM. For the same compound, the TGI [7] was 13.6 µM, the TGI [8] was 6 µM and the TGI [9] was 5.26 µM. The TGI [10] was 30.3 µM.
`COC(=O)C1(O)C(c2ccccc2)=NC2(C)CCCC21` (stereo not given) showed a TGI [1] of over 100 µM, a TGI [2] of over 100 µM and a TGI [3] of over 100 µM. The TGI [4] was over 100 µM, the TGI [5] was over 100 µM and the TGI [6] was over 100 µM. It also gave a TGI [7] of over 100 µM, a TGI [8] of over 100 µM and a TGI [9] of over 100 µM. The TGI [10] was over 100 µM.
In the case of `COC1C(O)C(O[C@H]2CC[C@@]3(C)C(CC[C@@H]4[C@@H]3CC[C@]3(C)[C@@H](C(C)OC5OC(CO)C(O)C(O)C5O)CC[C@]43O)C2)OC(C)C1OC1OC(CO)C(O)C(O)C1O` (stereo not given in full), the TGI [1] is reported as over 100 µM, the TGI [2] is reported as over 100 µM and the TGI [3] is reported as over 100 µM. For the same compound, the TGI [4] was over 100 µM, the TGI [5] was over 100 µM and the TGI [6] was over 100 µM. It also gave a TGI [7] of over 100 µM, a TGI [8] of over 100 µM and a TGI [9] of over 100 µM. The TGI [10] was over 100 µM.
`CC#CC(O)(C(=O)OC1CC(C)N(C)C(C)(C)C1)C1CCCC1` (stereo not given) showed a TGI [1] of over 100 µM, a TGI [2] of over 100 µM and a TGI [3] of over 100 µM. The TGI [4] was over 100 µM, the TGI [5] was over 100 µM and the TGI [6] was over 100 µM. It also gave a TGI [7] of over 100 µM, a TGI [8] of over 100 µM and a TGI [9] of over 100 µM. For the same compound, the TGI [10] was over 100 µM.
In the case of `O=C1C(C(O)(C(F)(F)F)C(F)(F)F)CCC1C(O)(C(F)(F)F)C(F)(F)F` (stereo not given), the TGI [1] is reported as over 86 µM, the TGI [2] is reported as over 67.6 µM and the TGI [3] is reported as over 100 µM. The TGI [4] was over 73.2 µM, the TGI [5] was 16.2 µM and the TGI [6] was over 100 µM. For the same compound, the TGI [7] was 30.9 µM, the TGI [8] was over 100 µM and the TGI [9] was 2.13 µM. The TGI [10] was 99.5 µM.
In the case of `O=S1SC(=S)C2C=CC=CC21` (stereo not given), the TGI [1] is reported as over 100 µM, the TGI [2] is reported as over 100 µM and the TGI [3] is reported as over 100 µM. It also gave a TGI [4] of over 100 µM, a TGI [5] of over 100 µM and a TGI [6] of over 100 µM. For the same compound, the TGI [7] was over 100 µM, the TGI [8] was over 100 µM and the TGI [9] was over 100 µM. It also gave a TGI [10] of over 100 µM.
Work on `Cc1cc(C)c(/C=C(\C(=C/c2c(C)cc(C)cc2C)[N+](=O)[O-])[N+](=O)[O-])c(C)c1` yielded a TGI [1] of over 100 µM, a TGI [2] of over 100 µM and a TGI [3] of over 100 µM. It also gave a TGI [4] of over 100 µM, a TGI [5] of over 100 µM and a TGI [6] of over 100 µM. For the same compound, the TGI [7] was over 100 µM, the TGI [8] was over 100 µM and the TGI [9] was over 100 µM. The TGI [10] was over 100 µM.
Compound `CCNc1ncnc2sc(SCc3ccccc3)nc12` has a TGI [1] of over 100 µM, a TGI [2] of over 100 µM and a TGI [3] of over 100 µM. For the same compound, the TGI [4] was over 100 µM, the TGI [5] was over 100 µM and the TGI [6] was over 100 µM. For the same compound, the TGI [7] was over 100 µM, the TGI [8] was over 100 µM and the TGI [9] was over 100 µM. The TGI [10] was over 100 µM.
`Clc1ccc(/C(=C\c2ccccc2)Cn2ccnc2)cc1` gave a TGI [1] of over 100 µM, a TGI [2] of 34.6 µM and a TGI [3] of over 100 µM. It also gave a TGI [4] of 38.1 µM, a TGI [5] of 25.6 µM and a TGI [6] of 36.3 µM. For the same compound, the TGI [7] was 89.2 µM, the TGI [8] was over 100 µM and the TGI [9] was 69.9 µM. For the same compound, the TGI [10] was 31.2 µM.
For `CCOP(=O)(OCC)OC1CC(n2cc(C)c(=O)n(C)c2=O)OC1CO[Si](C)(C)C(C)(C)C` (stereo not given), the TGI [1] was over 100 µM, the TGI [2] was over 100 µM and the TGI [3] was over 100 µM. For the same compound, the TGI [4] was over 100 µM, the TGI [5] was over 100 µM and the TGI [6] was over 100 µM. The TGI [7] was over 100 µM, the TGI [8] was over 100 µM and the TGI [9] was over 100 µM. The TGI [10] was over 100 µM.
With `COc1cc2[nH]c(-c3ccccc3)cc(=O)c2c(OC)c1OC` the TGI [1] was over 100 µM, the TGI [2] was over 100 µM and the TGI [3] was over 100 µM. The TGI [4] was over 100 µM, the TGI [5] was over 100 µM and the TGI [6] was over 100 µM. For the same compound, the TGI [7] was over 100 µM, the TGI [8] was over 100 µM and the TGI [9] was over 100 µM. It also gave a TGI [10] of over 100 µM.
`COc1nc2c(N3CCCC3)nc(N3CCNCC3)nc2nc1NCc1ccccc1` gave a TGI [1] of 8.8 µM, a TGI [2] of 2.95 µM and a TGI [3] of 4.65 µM. It also gave a TGI [4] of 3.92 µM, a TGI [5] of 2.88 µM and a TGI [6] of 4.68 µM. It also gave a TGI [7] of 4.95 µM, a TGI [8] of 11.1 µM and a TGI [9] of 3.19 µM. The TGI [10] was 3.5 µM.
With `CCOC(=O)C1=CC(C)(C(=O)OCC)Nc2c(nc(N)[nH]c2=O)N1` (stereo not given) the TGI [1] was over 10 µM, the TGI [2] was over 10 µM and the TGI [3] was over 10 µM. The TGI [4] was over 10 µM, the TGI [5] was over 10 µM and the TGI [6] was over 10 µM. The TGI [7] was over 10 µM, the TGI [8] was over 10 µM and the TGI [9] was over 10 µM. The TGI [10] was over 10 µM.
`COc1ccc(N2C(=O)C3c4[nH]c5ccccc5c4C4CCCCCCCCCC4C3C2=O)cc1` (stereo not given) showed a TGI [1] of over 10 µM, a TGI [2] of over 10 µM and a TGI [3] of over 10 µM. For the same compound, the TGI [4] was over 10 µM, the TGI [5] was over 10 µM and the TGI [6] was over 10 µM. The TGI [7] was over 10 µM, the TGI [8] was over 10 µM and the TGI [9] was over 10 µM. It also gave a TGI [10] of over 10 µM.
In the case of `O=C(CC(C(=O)c1ccco1)c1ccco1)c1ccco1` (stereo not given), the TGI [1] is reported as over 100 µM, the TGI [2] is reported as over 100 µM and the TGI [3] is reported as over 100 µM. For the same compound, the TGI [4] was over 100 µM, the TGI [5] was over 100 µM and the TGI [6] was over 100 µM. For the same compound, the TGI [7] was over 100 µM, the TGI [8] was over 100 µM and the TGI [9] was over 100 µM. The TGI [10] was over 100 µM.
Compound `COc1ccc(Oc2cnn(C(Br)(Br)C(C)=O)c(=O)c2Br)cc1` has a TGI [1] of 42.8 µM, a TGI [2] of 23.4 µM and a TGI [3] of 3.56 µM. It also gave a TGI [4] of 32.4 µM, a TGI [5] of 30 µM and a TGI [6] of over 64.3 µM. The TGI [7] was 28.5 µM, the TGI [8] was 27.8 µM and the TGI [9] was 61 µM. For the same compound, the TGI [10] was 27.8 µM.
